# Experimental data reported in patent US20040191344A1, “Pharmaceutical composition for prophylaxis or treatment of osteoporosis, and method to prepare the same” (priority 2003, published 2004).
# Test system: rats with ovariectomy-induced osteoporosis
# Assay: Ovariectomy-induced osteoporosis model
# Format: in vivo, rats (strain Sprague-Dawley)
# Details: 3 months
# Procedure: In order to determine the efficacy against osteoporosis in rats (strain Sprague-Dawley), two animal test models were constructed to illustrate the outcomes against normal osteoporosis or estrogen-deficiency-induced osteoporosis, respectively.
# In the animal test models, retinoic acid-induced osteoporosis model was used as normal osteoporosis model and ovariectomy-induced model was used as the model for osteoporosis induced by estrogen deficiency.
# The following experiment was conducted to test the effects of the pharmaceutical composition of the present invention on rats with ovariectomy-induced osteoporosis in terms of bone mineral contents, bone mineral density, biomechanical index and bone histomorphometry as well as illustrate the claimed efficacy of the pharmaceutical composition.
# The ovariectomized animal model was constructed as follows. Anesthesia of the rats was conducted by intra-abdominal injection of 20% urethane according to the dosage of 1 g/kg. The rats were then placed face down, incised in both sides of the spinal cord under aseptic condition, and their ovaries were removed to attain an osteoporosis animal model. For Normal Group, a piece of fat was removed on both sides of back spinal cord. After five days, 72 animals were chosen from the living rats and randomly divided into 9 groups of 8 animals. Administrations were given according to the following conditions:
# Normal Group (pseudo-operation): CMC-Na solution 10 ml/kg/d
# Affected Group: CMC-Na solution 10 ml/kg/d
# Positive Group (Nylestriol): batch no. 020701, provided by Shianghai Hualian Pharmaceuticals, 1 mg/kg, once a week
# Subgroup I—Extract of Semen Cuscutae and Fructus Cindii/Composite Groups
# (Medium Dosage): 200 mg/kg
# Subgroup II—Sole Extract of Semen Cuscutae (Unitary Group)
# Subgroup III—Low Dosage Plus Calcium-containing Substance 100 mg/kg, 200 mg/kg in Total
# Subgroup IV—Unitary Group Plus Calcium-containing Substance in a Ratio of 70/30, 200 mg/kg in Total
# The animals were continuously administered for 3 months. The effects of the pharmaceutical composition of the present invention on morphological alteration of the femur of rats were analyzed using a Dual Energy X-Ray Absorptiometry (DEXA) two days before end of the experiment under the anesthesia of ether. The femur and tibia bone were peeled and measured. Those pieces were soaked in 4% glutaraldehyde (0.1M, pH 7.3) for more than 24 hours. Later on, the vector side of the femur was hacksawed with dental diamond saw blades (grindstone). One piece from each animal was removed and cleaned in 10% sodium hypochlorite solvent for 6 hours, followed by ultra sound wash for 15 minutes.
# It was then dehydrated by ethanol-gradient, soaked in ethyl ether, air dried, and then treated with ion sputtering coating (IB-3). The BMD was assessed by dual-energy X-ray absorptiometry (DEXA), and the SX-40 X-ray bone densitometer on 20,000 volt. The graphs were taken by CMIAS-98A image analyzer.
# The bones were dried at […] in the oven and then weighed to get the dry weight. The dry bones were carbonated and then incinerated in 800° C. muffle furnace for 6 hours. The ashes were weighed and then dissolved in 6N HCl, in order to measure the Ca and P levels.
structure (smiles),measurement,setting,value
C#C[C@]1(O)[C@H](O)C[C@H]2[C@@H]3CCc4cc(OC5CCCC5)ccc4[C@H]3CC[C@@]21C [Nylestriol],Ash Mass Index,1 mg/kg once a week,0.649 ± 0.024 g/g
same,EI,1 mg/kg once a week,28.55 ± 7.03 KN · mm^2
same,K (spring strength),1 mg/kg once a week,248.91 ± 53.04 N/mm
same,Pb (maximum strength),1 mg/kg once a week,97 ± 9.4 N
same,δb (maximum torsion index),1 mg/kg once a week,0.54 ± 0.17 mm
same,σb (tensile strength),1 mg/kg once a week,147.79 ± 13.95 MPa
same,"BMD level, Femur","DEXA, femoral head, 1 mg/kg/w",0.353 ± 0.030 g/cm^2
same,"BMD level, Lumbar vertebra","DEXA, 1 mg/kg/w",0.263 ± 0.015 g/cm^2
same,Ca level,"bone ash, 1 mg/kg once a week",0.254 ± 0.029 g/g
same,P level,"bone ash, 1 mg/kg once a week",0.130 ± 0.014 g/g
same,Average Trabecular Width,"femur, 1 mg/kg/w",146.89 ± 22.27 μm
same,Percentage of Trabecular Area,"femur, 1 mg/kg/w",0.9148 ± 0.0371
